The test system of one assay is BaF3. Nature of the assay: Ratio of IC50 for Mer in mouse BaF3 cells to IC50 for Axl in mouse BaF3 cells. In kind it is cell-based.
In assay [1] the target is T1, Tyrosine-protein kinase Mer (Mus musculus, UniProt Q60805).
T1 sequence (Q60805 whole entry): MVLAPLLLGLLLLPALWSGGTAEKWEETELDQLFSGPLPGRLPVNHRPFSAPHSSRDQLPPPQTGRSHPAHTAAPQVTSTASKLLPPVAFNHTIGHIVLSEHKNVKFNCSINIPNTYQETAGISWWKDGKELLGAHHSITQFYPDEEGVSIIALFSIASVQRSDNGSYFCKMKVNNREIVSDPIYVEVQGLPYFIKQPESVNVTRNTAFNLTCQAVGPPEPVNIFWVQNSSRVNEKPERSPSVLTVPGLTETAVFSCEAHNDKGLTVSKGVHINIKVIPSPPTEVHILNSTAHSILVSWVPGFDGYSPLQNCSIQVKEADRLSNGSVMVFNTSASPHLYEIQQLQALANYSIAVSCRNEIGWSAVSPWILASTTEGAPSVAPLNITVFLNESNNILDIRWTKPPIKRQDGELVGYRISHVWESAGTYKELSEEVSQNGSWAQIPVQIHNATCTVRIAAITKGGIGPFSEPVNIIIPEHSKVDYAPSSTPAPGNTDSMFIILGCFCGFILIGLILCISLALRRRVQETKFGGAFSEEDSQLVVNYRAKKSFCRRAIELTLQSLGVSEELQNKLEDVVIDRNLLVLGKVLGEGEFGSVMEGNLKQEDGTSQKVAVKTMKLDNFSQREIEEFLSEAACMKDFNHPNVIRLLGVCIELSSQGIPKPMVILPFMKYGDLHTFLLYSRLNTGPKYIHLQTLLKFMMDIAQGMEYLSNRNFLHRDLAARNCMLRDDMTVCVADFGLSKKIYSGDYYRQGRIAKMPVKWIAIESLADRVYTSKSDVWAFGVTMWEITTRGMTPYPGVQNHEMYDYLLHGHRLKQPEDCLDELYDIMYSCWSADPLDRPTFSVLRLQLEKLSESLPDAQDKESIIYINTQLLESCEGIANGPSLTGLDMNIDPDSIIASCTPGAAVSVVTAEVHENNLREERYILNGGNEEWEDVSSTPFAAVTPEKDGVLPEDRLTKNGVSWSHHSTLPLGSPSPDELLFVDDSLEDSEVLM
Nature of the assay: Inhibition of Mer in mouse BaF3 cells. In kind it is cell-based.

Another assay is filed under the species Homo sapiens. As to the kind of experiment: Ratio of IC50 for Mer (unknown origin) to IC50 for Axl (unknown origin).
The target of assay [2] is T2, Tyrosine-protein kinase receptor UFO (Homo sapiens, UniProt P30530).
T2 sequence (P30530 whole entry): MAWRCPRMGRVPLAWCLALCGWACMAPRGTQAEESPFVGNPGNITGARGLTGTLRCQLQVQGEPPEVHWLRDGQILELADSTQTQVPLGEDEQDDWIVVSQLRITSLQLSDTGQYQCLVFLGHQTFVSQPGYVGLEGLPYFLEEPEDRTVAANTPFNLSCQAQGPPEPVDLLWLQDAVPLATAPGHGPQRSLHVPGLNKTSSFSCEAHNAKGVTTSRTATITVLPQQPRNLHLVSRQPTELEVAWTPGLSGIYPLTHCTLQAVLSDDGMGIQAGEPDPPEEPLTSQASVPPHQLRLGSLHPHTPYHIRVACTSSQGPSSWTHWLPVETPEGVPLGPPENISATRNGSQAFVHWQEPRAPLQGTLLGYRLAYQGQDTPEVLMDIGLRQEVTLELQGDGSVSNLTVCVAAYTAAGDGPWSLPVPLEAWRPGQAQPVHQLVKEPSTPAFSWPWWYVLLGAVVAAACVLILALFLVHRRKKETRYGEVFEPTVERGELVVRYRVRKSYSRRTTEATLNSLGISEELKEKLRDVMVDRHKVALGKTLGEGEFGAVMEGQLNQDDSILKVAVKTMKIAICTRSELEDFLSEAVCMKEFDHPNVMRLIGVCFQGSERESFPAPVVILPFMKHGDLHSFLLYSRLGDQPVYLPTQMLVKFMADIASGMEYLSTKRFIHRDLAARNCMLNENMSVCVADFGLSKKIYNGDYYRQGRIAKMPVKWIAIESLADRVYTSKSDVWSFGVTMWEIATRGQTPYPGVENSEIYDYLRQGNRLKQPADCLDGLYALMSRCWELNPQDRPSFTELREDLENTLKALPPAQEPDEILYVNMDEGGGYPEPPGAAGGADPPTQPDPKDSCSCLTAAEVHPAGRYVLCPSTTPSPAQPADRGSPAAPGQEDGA
Nature of the assay: Inhibition of Axl (unknown origin) by cell free assay.

Assay [3] deals with T3, Tyrosine-protein kinase receptor UFO (Mus musculus, UniProt Q00993).
T3 sequence (Q00993 whole entry): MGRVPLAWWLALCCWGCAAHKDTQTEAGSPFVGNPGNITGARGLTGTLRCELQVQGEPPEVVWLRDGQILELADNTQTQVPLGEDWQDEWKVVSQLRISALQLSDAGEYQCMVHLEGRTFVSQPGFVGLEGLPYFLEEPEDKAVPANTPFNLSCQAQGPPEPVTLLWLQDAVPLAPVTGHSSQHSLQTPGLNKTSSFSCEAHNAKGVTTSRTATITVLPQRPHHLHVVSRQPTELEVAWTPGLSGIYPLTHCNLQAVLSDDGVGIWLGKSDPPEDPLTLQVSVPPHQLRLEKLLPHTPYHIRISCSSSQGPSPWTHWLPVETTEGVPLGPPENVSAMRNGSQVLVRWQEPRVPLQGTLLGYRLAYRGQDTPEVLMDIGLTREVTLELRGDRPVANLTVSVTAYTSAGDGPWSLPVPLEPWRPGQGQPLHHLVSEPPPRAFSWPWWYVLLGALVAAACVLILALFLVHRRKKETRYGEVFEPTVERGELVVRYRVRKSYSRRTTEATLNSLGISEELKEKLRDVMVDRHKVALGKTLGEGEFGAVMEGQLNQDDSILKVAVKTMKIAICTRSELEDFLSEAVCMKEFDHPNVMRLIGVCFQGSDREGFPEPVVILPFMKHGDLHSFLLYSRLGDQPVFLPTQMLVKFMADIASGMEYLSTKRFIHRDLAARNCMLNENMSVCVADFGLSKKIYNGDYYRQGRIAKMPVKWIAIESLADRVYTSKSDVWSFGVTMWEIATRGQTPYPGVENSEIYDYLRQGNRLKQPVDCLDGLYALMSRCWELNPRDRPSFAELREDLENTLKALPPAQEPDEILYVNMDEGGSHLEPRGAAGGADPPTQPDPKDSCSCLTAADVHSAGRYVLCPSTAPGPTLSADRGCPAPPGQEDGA
As to the kind of experiment: Inhibition of Axl in mouse BaF3 cells. In kind it is cell-based.

Assay [4] addresses T4, Tyrosine-protein kinase Mer (Homo sapiens, UniProt Q12866).
T4 sequence (Q12866 whole entry): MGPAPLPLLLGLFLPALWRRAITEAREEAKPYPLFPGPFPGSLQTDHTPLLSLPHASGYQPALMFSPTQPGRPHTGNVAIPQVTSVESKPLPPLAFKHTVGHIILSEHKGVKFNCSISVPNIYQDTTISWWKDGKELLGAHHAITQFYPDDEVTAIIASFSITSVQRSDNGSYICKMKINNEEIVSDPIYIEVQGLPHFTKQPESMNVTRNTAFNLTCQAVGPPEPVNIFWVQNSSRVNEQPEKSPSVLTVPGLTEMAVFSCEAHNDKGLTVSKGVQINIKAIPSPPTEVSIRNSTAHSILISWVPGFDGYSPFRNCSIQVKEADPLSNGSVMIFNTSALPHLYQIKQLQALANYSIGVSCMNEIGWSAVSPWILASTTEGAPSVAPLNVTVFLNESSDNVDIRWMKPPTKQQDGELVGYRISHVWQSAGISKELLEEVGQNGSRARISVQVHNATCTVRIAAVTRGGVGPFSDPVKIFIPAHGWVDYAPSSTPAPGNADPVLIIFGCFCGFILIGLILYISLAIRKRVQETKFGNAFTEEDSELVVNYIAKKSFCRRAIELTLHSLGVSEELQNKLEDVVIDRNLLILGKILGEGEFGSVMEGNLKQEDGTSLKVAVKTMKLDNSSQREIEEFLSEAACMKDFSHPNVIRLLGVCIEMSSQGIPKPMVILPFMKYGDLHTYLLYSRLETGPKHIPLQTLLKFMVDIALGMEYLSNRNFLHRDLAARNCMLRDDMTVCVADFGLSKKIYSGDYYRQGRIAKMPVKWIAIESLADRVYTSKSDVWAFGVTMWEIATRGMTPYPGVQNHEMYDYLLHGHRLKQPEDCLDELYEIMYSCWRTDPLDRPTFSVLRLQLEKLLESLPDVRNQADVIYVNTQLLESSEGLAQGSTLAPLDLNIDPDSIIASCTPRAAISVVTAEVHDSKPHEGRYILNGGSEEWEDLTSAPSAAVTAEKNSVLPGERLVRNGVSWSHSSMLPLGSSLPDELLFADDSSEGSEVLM
As to the kind of experiment: Inhibition of Mer (unknown origin) by cell free assay.

Bounds are passed on as bounds.

The term IC50 denotes the point on the concentration scale where inhibition reaches its midpoint. Regarding `CC(C)n1cc(C(=O)Nc2ccc(Oc3ncnc4c3CCN(C(=O)CN3CCOCC3)C4)c(F)c2)c(=O)n(-c2ccc(F)cc2)c1=O`, the Ratio IC50 was determined as 7 with BaF3 and 10 in the assay listed under Homo sapiens. The half-inhibitory concentration (IC50) in assay [1] is 910 nM; in assay [2], 17 nM; in assay [3], 130 nM; in assay [4], 170 nM.

Regarding `CC(C)n1cc(C(=O)Nc2ccc(Oc3ncnc4c3CN(C(=O)CCN3CCCC3)C4)c(F)c2)c(=O)n(-c2ccc(F)cc2)c1=O`, the figures for the Ratio IC50 in the assay on BaF3 and in the assay filed under Homo sapiens were 2.3 and 11, respectively. Further, the IC50 in assay [1] worked out at 280 nM; in assay [2] it was 15 nM; in assay [3] it was 120 nM; in assay [4], 160 nM.

Turning to `CC(C)n1cc(C(=O)Nc2ccc(Oc3ncnc4c3CN(C(=O)CC3CCN(C)CC3)C4)c(F)c2)c(=O)n(-c2ccc(F)cc2)c1=O`, the Ratio IC50 in the assay on BaF3 was 2.3; in the assay listed under Homo sapiens, less than 1.2. In addition, the IC50 in assay [1] is 39 nM; in assay [2] it was 3.4 nM; in assay [3], 17 nM; in assay [4], less than 4.1 nM.

For `CC(C)n1cc(C(=O)Nc2ccc(Oc3ncnc4c3CCN(CC3CCN(C)CC3)C4)c(F)c2)c(=O)n(-c2ccc(F)cc2)c1=O`, the Ratio IC50 was determined as 5.2 in the assay on BaF3 and 20 in the assay filed under Homo sapiens. Also, the concentration for half-maximal inhibition (IC50) in assay [1] was 78 nM; in assay [2], 3.7 nM; in assay [3] it was 15 nM; in assay [4], 74 nM.

Consider `CN1CCC(CN2CCc3c(ncnc3Oc3ccc(NC(=O)c4cn(CCF)c(=O)n(-c5ccc(F)cc5)c4=O)cc3F)C2)CC1`, for which the Ratio IC50 stood at 2.7 in the assay on BaF3 and 18 in the assay listed under Homo sapiens. For the same compound, the IC50 came to 130 nM in assay [1], 8.5 nM in assay [2], 49 nM in assay [3] and 150 nM in assay [4].

For the compound `CC(C)n1cc(C(=O)Nc2ccc(Oc3ncnc4c3CN(C(=O)CN3CCN(C)CC3)C4)c(F)c2)c(=O)n(-c2ccc(F)cc2)c1=O`, the Ratio IC50 in the assay with BaF3 stood at 2.6; in the assay filed under Homo sapiens, 5.5. Besides, the IC50 in assay [1] worked out at 110 nM; in assay [2], 6 nM; in assay [3] it was 42 nM; in assay [4] it was 33 nM.

Turning to `CC(C)n1cc(C(=O)Nc2ccc(Oc3ncnc4c3CCN(CC(=O)N3CCN(C)CC3)C4)c(F)c2)c(=O)n(-c2ccc(F)cc2)c1=O`, the Ratio IC50 turned out to be 4.7 with BaF3 and 22 in the assay filed under Homo sapiens. Further, the IC50 in assay [1] came to 370 nM; in assay [2], 9.5 nM; in assay [3], 78 nM; in assay [4], 210 nM.

Consider `CC(C)n1cc(C(=O)Nc2ccc(Oc3ncnc4c3CCN(C3CCN(CC5CC5)CC3)C4)c(F)c2)c(=O)n(-c2ccc(F)cc2)c1=O`, for which the Ratio IC50 in the assay with BaF3 amounted to 4; in the assay listed under Homo sapiens, 9.7. Also, the IC50 came out at 79 nM in assay [1], 3.5 nM in assay [2], 20 nM in assay [3] and 34 nM in assay [4].

Turning to `CC(C)n1cc(C(=O)Nc2ccc(Oc3ncnc4c3CCN(C(=O)C3CCC3)C4)c(F)c2)c(=O)n(-c2ccc(F)cc2)c1=O`, the values for the Ratio IC50 with BaF3 and in the assay listed under Homo sapiens were 4.4 and greater than 189, respectively. Also, the half-inhibitory concentration (IC50) in assay [1] is 440 nM; in assay [2], 5.3 nM; in assay [3], 100 nM; in assay [4], greater than 1000 nM.

Take `CC(C)Cn1cc(C(=O)Nc2ccc(Oc3ncnc4c3CCN(CC3CCN(C)CC3)C4)c(F)c2)c(=O)n(-c2ccc(F)cc2)c1=O`: the figures for the Ratio IC50 in the assay with BaF3 and in the assay listed under Homo sapiens were 2.4 and 20, respectively. The 50% inhibitory concentration (IC50) in assay [1] came out at 110 nM; in assay [2], 5.5 nM; in assay [3] it was 46 nM; in assay [4], 110 nM.

In the case of `CC(C)n1cc(C(=O)Nc2ccc(Oc3ncnc4c3CC(=O)N4)c(F)c2)c(=O)n(-c2ccc(F)cc2)c1=O`, the Ratio IC50 in the assay with BaF3 and in the assay filed under Homo sapiens was 2.9 in each case. Further, the half-inhibitory concentration (IC50) in assay [1] was found to be 280 nM; in assay [2], 26 nM; in assay [3], 84 nM; in assay [4], 76 nM.

Source of the values: ChEMBL document CHEMBL4823291, “Discovery of 5,6,7,8-tetrahydropyrido[3,4-d]pyrimidine derivatives as novel selective Axl inhibitors” (Bioorg Med Chem Lett, 2021).
